Experimental data from paper PMC2653417 (Bioorganic & medicinal chemistry letters, 2008).

Tests used:
[1] = system: HER2 over-expressing SKBr3 breast cancer cells; assay: cell growth inhibition assay; format: cell-based; settings: Homo sapiens, SK-BR-3, 72 h, read-out: IC50 SKBr3
Hsp90 [2] = biological target: T1, Hsp90 (Homo sapiens, UniProt P07900); assay: fluorescent polarization
PRAS40 = assay: Western blot assay, client protein degradation; format: cell-based
Raf-1 = assay: Western blot assay, client protein degradation; format: cell-based
[3] = read-out: IC50 cell growth inhibition; cited from earlier work
Hsp90 [4] = biological target: T1, Hsp90; settings: cited from earlier work
Hsp90 [5] = biological target: T1, Hsp90; settings: cited from earlier work; remark: listed apart in the source

| IC50 [1] | Structure (SMILES) | effect on PRAS40 degradation (PRAS40) | effect on Raf-1 degradation (Raf-1) | further results |
| --- | --- | --- | --- | --- |
| 4.4 µM | O=S(=O)(Nc1ccc(O)c(-c2c(O)ccc3c2OCO3)c1)c1cc(Cl)ccc1Cl [Compound 17] | – | – | – |
| – | O=S(=O)(Nc1ccc(O)c(-c2ccccc2O)c1)c1cc(Cl)ccc1Cl [Compound 9a] | – | – | fold less activity than 2 in FP assay (Hsp90 [2]; relative to compound 2): about 20 fold |
| 6.5 µM | O=S(=O)(Nc1ccc(O)c(-c2c(O)ccc3ccccc23)c1)c1cc(Cl)ccc1Cl [Compound 2] | neither had any effect | neither had any effect | IC50 [3]: 29 µM |
| – | O=S(=O)(Nc1ccc(O)c(-c2c(O)ccc3ccccc23)c1)c1ccccc1 [Compound 1] | – | – | activity in malachite green assay (Hsp90 [4]): low micromolar activity; activity in FP assay (Hsp90 [5]): low micromolar activity |
| 6 µM | COc1ccc(O)c(O)c1-c1cc(NS(=O)(=O)c2cc(Cl)ccc2Cl)ccc1N [Compound 13] | neither had any effect | neither had any effect | IC50 FP (Hsp90 [2]; mean of 2 independent determinations, maximum concentration tested 50 µM): sub-micromolar |
